Test results from patent US20240124409A1, “GUAIANOLIDE SESQUITERPENE LACTONE DERIVATIVES AND PHARMACEUTICAL USE THEREOF” (NANJING UNIVERSITY OF CHINESE MEDICINE, priority 2021, published 2024).

Tests used:
[1] = test system: DSS-induced UC model mice; test: Anti-ulcerative colitis activity, DSS mouse colitis model; type: in vivo, C57BL/6 mice; set-up: key to DAI score: DAI = (weight loss + stool + occult blood scores)/3; conditions: for MPO activity in colon tissue / Colon length: 10 days
Protocol: Except for the normal group, the other mice were free to drink 2.5% DSS for 7 days, which was then replaced to distilled water to be drunk freely for 3 days to establish the UC model. […] The mice in the normal group and model groups were administered intragastrically the same volume of the solvent 0.5% CMC-Na.
The general living conditions of the mice in each group were observed and the disease activity indexs (DAI) were evaluated. The daily specific observation indicator was weight, stool property and occult blood state of mice, and then the scores of the weight loss, stool property and occult blood state were added to determine the average value, so as to obtain the DAI score of each mouse, that is, DAI=(weight loss score+stool property score+occult blood state score)/3, to evaluate the disease activity.
Test method of occult blood: Using o-toluidine method, a little feces was picked up into a 24-well culture plate with a cotton swab, into which was first added 200 μL of the solution of o-toluidine glacial acetic acid, and then quickly added 200 μL of 3% hydrogen peroxide solution. Those turned blue-brown within 2 minutes were positive.
1 h after the last administration, blood was collected from the venous plexus of fundus oculi, stood at room temperature for 2 h, and centrifuged at 3000 rpm for 20 min. The serum was aspirated, aliquoted, and frozen at −70° C. for subsequent use. After the blood collection, the mice were sacrificed by cervical dislocation, and the abdominal cavity was opened. The colon tissues were removed 1 cm away from the anus, rinsed twice with pre-cooled PBS, and frozen at −70° C. for subsequent use.
The shortening of colon length is one of the main characteristics of DSS-induced UC model mice. After dissecting the abdominal cavity of the UC mice, the colon and distal ileum tissues were dissociated. The external morphological changes of the colon tissues were observed, the colon length was measured and recorded, and the photos were taken.
40 mg of colon tissues of the mice in each group was taken, into which was added 400 μL of pre-cooled normal saline to prepare tissue homogenates. After centrifugation at 4° C. and 1200 rpm for 5 min, the supernatants were collected. According to the method described in the kit instructions, various reagents were added sequentially, and finally the absorbance value of each well was determined at the wavelength of 460 nm of the microplate reader to calculate the MPO activity.
MPO activity (U/g wet weight)=(OD value of test tube−OD value of control tube)/11.3×sampling amount(g)

mouse sepsis model = test: Mouse sepsis model (LPS), Q-PCR of inflammatory factors; type: in vivo, C57BL/6 mice; set-up: key: relative mRNA by 2^−ΔΔCt, normalized to Gapdh
Source text: The mice were randomly divided into 8 groups, one of which was randomly selected as the normal group, and the other 7 groups were the model group, the parent drug 1 (0.4 and 4 μmol/kg), the hydrochloride 22 (4 μmol/kg), the fumarate 23 (0.4 and 4 μmol/kg) and dexamethasone (Dex, 12 μmol/kg) groups, respectively, with 6 mice in each group. 5 days before model establishment, the parent drug 1 (0.4 and 4 μmol/kg), the hydrochloride 22 (4 μmol/kg), the fumarate 23 (0.4 and 4 μmol/kg) and Dex (12 μmol/kg) were administered intragastrically. The mice in the normal group and model group were administered intragastrically the same volume of the solvent 0.5% CMC-Na. LPS (10 mg/kg) was injected intraperitoneally 1 hour after administration on the last day to establish a mouse sepsis model.
At 6 h after intraperitoneal injection of LPS, the mice were sacrificed by cervical dislocation, and the abdominal cavity was opened. The lungs, livers and kidneys were taken out, and rinsed twice with pre-cooled PBS. The lung tissues, liver left lobe tissues and kidney tissues of the mice were cut, and fixed with 4% paraformaldehyde for 24-48 h. The remaining tissues were frozen at −70° Cfor subsequent use.
20 mg of kidney, lung and liver tissues were accurately weighed, rinsed with pre-cooled PBS solution, cut into small pieces by ophthalmic surgical scissors, and put into a glass homogenizer, into which was added 1 mL Trizol reagent for grinding to prepare tissue homogenate. Subsequently, the homogenate was transferred into a 1.5 mL EP tube without RNase and lysed on ice for 10 min. 200 μL chloroform was added, and the mixture was shaken violently, stood on ice for 3-5 min, and centrifuged at 12000 rpm and 4° C. for 15 min. The supernatant was aspirated carefully into a new 1.5 mL EP tube without RNase, into which was added the same volume of pre-cooled isopropanol, stood on an ice bath for 30 min, centrifuged at 12000 rpm and 4° C. for 10 min, and the supernatant was discarded. 75% ethanol-DEPC solution was added to wash the precipitate, and the total RNA was obtained by inversion and air drying on flat paper. Subsequently, 10 μL of DEPC treated water was added for dissolution. 1 μL of the total RNA solution was taken, and diluted to 100 times, the OD values of which at 260 nm and 280 nm were measured with a full wavelength microplate reader. If the ratio of OD260/OD280 is between 1.8 and 2.0, it is said that the extracted RNA has a high purity, i.e., it can be used in subsequent experiments.
Subsequent experiments were carried out with 20 μL of a reverse transcription reaction system according to the method described in the kit instructions:
Subsequent experiments were carried out with 20 μL of a reaction system according to the method described in the kit instructions:
The above reagents were added into a micro-reaction tube, sealed with a sealing membrane, and placed in a Q-PCR instrument. The parameters were set according to the following reaction conditions to carry out the amplification experiment. The reaction conditions were as follows:
The threshold cycle (Ct) value of each group was recorded. Calculating and analyzing were carried out by the 2^−ΔΔCt method (the expression level of the control gene Gapdh was set to 1 to correct the expression level of the target gene).

[2] = Table 12, title 'in lung' (text b281: liver), 0.4 μmol/kg i.g.
[3] = Table 12, title 'in lung' (text b281: liver), 4 μmol/kg i.g.

## C=C1C(=O)O[C@@H]2[C@@H]3[C@]4(CC[C@@]3(C)O)C[C@]4(C)CC[C@@H]12 [Compound 1]
[1]; 20 nmol/kg i.g.
  MPO activity in colon tissue: 1.40 ± 0.31 U/g tissue
[1]; 20 nmol/kg/d i.g.
  Colon length: 6.15 ± 0.35 cm
[1]; 40 nmol/kg i.g.
  MPO activity in colon tissue: 1.08 ± 0.12 U/g tissue
[1]; 40 nmol/kg/d i.g.
  Colon length: 6.78 ± 0.28 cm
[1]; day 1, 20 nmol/kg i.g.
  DAI score: 0.00 ± 0.00
[1]; day 1, 40 nmol/kg i.g.
  DAI score: 0.00 ± 0.00
[1]; day 2, 20 nmol/kg i.g.
  DAI score: 0.33 ± 0.14
[1]; day 2, 40 nmol/kg i.g.
  DAI score: 0.33 ± 0.19
[1]; day 3, 20 nmol/kg i.g.
  DAI score: 0.75 ± 0.28
[1]; day 3, 40 nmol/kg i.g.
  DAI score: 0.58 ± 0.21
[1]; day 4, 20 nmol/kg i.g.
  DAI score: 1.08 ± 0.37
[1]; day 4, 40 nmol/kg i.g.
  DAI score: 1.00 ± 0.19
[1]; day 5, 20 nmol/kg i.g.
  DAI score: 1.75 ± 0.50
[1]; day 5, 40 nmol/kg i.g.
  DAI score: 1.25 ± 0.34
[1]; day 6, 20 nmol/kg i.g.
  DAI score: 2.25 ± 0.44
[1]; day 6, 40 nmol/kg i.g.
  DAI score: 1.67 ± 0.36
[1]; day 7, 20 nmol/kg i.g.
  DAI score: 2.50 ± 0.17
[1]; day 7, 40 nmol/kg i.g.
  DAI score: 1.83 ± 0.44
[1]; day 8, 20 nmol/kg i.g.
  DAI score: 2.75 ± 0.39
[1]; day 8, 40 nmol/kg i.g.
  DAI score: 1.92 ± 0.50
[1]; day 9, 20 nmol/kg i.g.
  DAI score: 1.83 ± 0.17
[1]; day 9, 40 nmol/kg i.g.
  DAI score: 1.17 ± 0.32
[1]; day 10, 20 nmol/kg i.g.
  DAI score: 1.25 ± 0.16
[1]; day 10, 40 nmol/kg i.g.
  DAI score: 0.50 ± 0.22
Mouse sepsis model; [2]
  Il1 mRNA expression: 11.24 ± 2.98
  Il6 mRNA expression: 8.86 ± 3.11
  Tnf mRNA expression: 8.75 ± 2.25
Mouse sepsis model; [3]
  Il1 mRNA expression: 4.82 ± 0.58
  Il6 mRNA expression: 5.20 ± 0.87
  Tnf mRNA expression: 7.09 ± 0.99
Mouse sepsis model; kidney, 0.4 μmol/kg i.g.
  Il1 mRNA expression: 7.01 ± 0.33
  Il6 mRNA expression: 7.55 ± 2.08
  Tnf mRNA expression: 7.17 ± 1.22
Mouse sepsis model; kidney, 4 μmol/kg i.g.
  Il1 mRNA expression: 3.05 ± 0.58
  Il6 mRNA expression: 3.11 ± 0.29
  Tnf mRNA expression: 6.59 ± 0.18
Mouse sepsis model; lung, 0.4 μmol/kg i.g.
  Il1 mRNA expression: 15.29 ± 0.88
  Il6 mRNA expression: 19.17 ± 0.51
  Tnf mRNA expression: 8.58 ± 0.85
Mouse sepsis model; lung, 4 μmol/kg i.g.
  Il1 mRNA expression: 7.89 ± 1.44
  Il6 mRNA expression: 11.67 ± 1.84
  Tnf mRNA expression: 7.99 ± 1.36

## CN(C)C[C@@H]1C(=O)O[C@H]2[C@H]1CC[C@@]1(C)C[C@]13CC[C@@](C)(O)[C@H]23 [Compound 22]
Mouse sepsis model; [3]
  Il1 mRNA expression: 3.07 ± 0.29
  Il6 mRNA expression: 3.93 ± 0.90
  Tnf mRNA expression: 5.71 ± 0.61
Mouse sepsis model; kidney, 4 μmol/kg i.g.
  Il1 mRNA expression: 2.76 ± 0.59
  Il6 mRNA expression: 2.43 ± 0.64
  Tnf mRNA expression: 6.20 ± 0.60
Mouse sepsis model; lung, 4 μmol/kg i.g.
  Il1 mRNA expression: 5.22 ± 0.90
  Il6 mRNA expression: 7.16 ± 0.71
  Tnf mRNA expression: 6.52 ± 0.29
